pIC50: −log10 of the molar value.
Target: T1, Tyrosinase (Agaricus bisporus, UniProt O42713)
T1 sequence (O42713 whole entry): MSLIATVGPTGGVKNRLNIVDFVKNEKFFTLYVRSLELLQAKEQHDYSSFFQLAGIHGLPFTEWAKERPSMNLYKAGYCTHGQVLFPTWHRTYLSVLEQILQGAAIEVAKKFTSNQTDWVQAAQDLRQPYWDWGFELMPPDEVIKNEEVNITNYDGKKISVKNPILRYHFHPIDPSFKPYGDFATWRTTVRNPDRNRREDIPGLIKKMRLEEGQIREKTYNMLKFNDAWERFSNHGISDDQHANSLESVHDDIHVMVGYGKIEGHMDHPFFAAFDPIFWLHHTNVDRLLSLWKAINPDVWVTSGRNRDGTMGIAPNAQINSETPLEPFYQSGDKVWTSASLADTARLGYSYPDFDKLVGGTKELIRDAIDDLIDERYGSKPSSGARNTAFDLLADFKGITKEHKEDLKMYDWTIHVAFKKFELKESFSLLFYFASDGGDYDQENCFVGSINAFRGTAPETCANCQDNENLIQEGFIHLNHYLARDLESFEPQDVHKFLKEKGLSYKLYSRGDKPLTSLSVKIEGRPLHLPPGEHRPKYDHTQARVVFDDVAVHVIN
Assay: Inhibition of mushroom tyrosinase using L-DOPA as substrate after 10 mins

Row | Compound | pIC50
1 | Oc1ccc(CCc2ccc(F)cc2)c(O)c1 | 4.30
2 | Oc1ccc(CCc2ccccc2Cl)c(O)c1 | 4.47
3 | COc1ccc(CCc2ccc(O)cc2O)cc1 | 4.50

Continued by rising pIC50, values first:

Row | pIC50 | Compound
4 | 4.51 | Oc1ccc(CCc2ccccc2)c(O)c1
5 | 5.07 | Oc1ccc(CCc2ccc(O)cc2O)cc1

From ChEMBL document CHEMBL2203088, “Design, synthesis and molecular simulation studies of dihydrostilbene derivatives as potent tyrosinase inhibitors” (Bioorg Med Chem Lett, 2012)
